Data taken from patent US20210347780A1, “CDPK1 INHIBITORS, COMPOSITIONS, AND METHODS RELATED THERETO” (Vyera Pharmaceuticals, LLC, priority 2018, published 2021).
Where two headings read alike, the source gives them in different places.

Target: T1, T. gondii CDPK1 (tgCDPK1) (Toxoplasma gondii, UniProt Q9BJF5)
T1 sequence (Q9BJF5 1-507): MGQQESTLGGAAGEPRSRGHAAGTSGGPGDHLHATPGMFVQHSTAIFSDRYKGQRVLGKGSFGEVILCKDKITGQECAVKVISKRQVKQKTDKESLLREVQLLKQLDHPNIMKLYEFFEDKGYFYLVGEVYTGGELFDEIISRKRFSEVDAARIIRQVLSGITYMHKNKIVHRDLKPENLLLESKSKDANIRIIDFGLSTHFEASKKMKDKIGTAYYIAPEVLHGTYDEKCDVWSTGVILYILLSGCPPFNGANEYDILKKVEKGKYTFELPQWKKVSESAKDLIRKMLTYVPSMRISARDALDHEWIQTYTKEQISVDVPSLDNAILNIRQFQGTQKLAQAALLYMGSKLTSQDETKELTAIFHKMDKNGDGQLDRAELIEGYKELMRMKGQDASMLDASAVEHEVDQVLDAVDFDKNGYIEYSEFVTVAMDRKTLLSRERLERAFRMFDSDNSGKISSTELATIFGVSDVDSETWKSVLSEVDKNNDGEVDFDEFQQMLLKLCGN
Test: biochemical
Details: at least three independent replicates
Experimental: Certain of the compounds prepared as described above were assayed to determine their IC50 for inhibition of T. gondii CDPK1 (tgCDPK1). At least three independent replicates of the assay were conducted for each compound tested.

[1] = inhibition of T. gondii CDPK1, read-out: tgCDPK1 IC50

## Nc1ncnc2c1c(Oc1cc(C(F)(F)F)ccn1)nn2[C@H]1CCCC[C@H]1O (racemic) [191 cis (rac)]
[1]
  IC50: 0.044 µM

## Nc1ncnc2c1c(Oc1cc(C(F)(F)F)ccn1)nn2[C@@H]1CCCC[C@H]1O (racemic) [191 trans (rac)]
[1]
  IC50: 0.025 µM

## Nc1ncnc2c1c(Oc1cc(O)ccn1)nn2[C@@H]1CCCC[C@H]1O (single isomer, unassigned) [Compound 283]
[1]
  IC50: 0.147 µM

## Nc1ncnc2c1c(Oc1cc(O)ccn1)nn2[C@@H]1CCCC[C@@H]1O (single isomer, unassigned) [Compound 284]
[1]
  IC50: 0.0392 µM

## COc1ccnc(Oc2nn([C@@H]3CCCC[C@H]3O)c3ncnc(N)c23)c1 (single isomer, unassigned) [Compound 285]
[1]
  IC50: 1.4 µM

## COc1ccnc(Oc2nn([C@H]3CCCC[C@H]3O)c3ncnc(N)c23)c1 (single isomer, unassigned) [Compound 286]
[1]
  IC50: 0.144 µM

## Nc1ncnc2c1c(Oc1cc(C(F)(F)F)ccn1)nn2[C@@H]1CCCC[C@H]1O [191 (R,R)]
[1]
  IC50: 0.0084 µM

## Nc1ncnc2c1c(Oc1cc(C(F)(F)F)ccn1)nn2[C@H]1CCCC[C@@H]1O [191 (S,S)]
[1]
  IC50: 0.125 µM

## Nc1ncnc2c1c(Oc1cc(CO)ccn1)nn2C1CC1 [Compound 86, (2-((4-amino-1-cyclopropyl-1H-pyrazole[3,4-d]pyrimidin-3-yl)oxy)pyridin-4-yl)methanol]
[1]
  IC50: 0.0296 µM

## COc1ccnc(Oc2nn(C3CCC3)c3ncnc(N)c23)c1 [Compound 112, 1-cyclobuty1-3-((4-methoxypyridin-2-yl)oxy)-1H-pyrazolo[3,4-d]pyrimidin-4-amine]
[1]
  IC50: 0.0146 µM

## Nc1ncnc2c1c(Oc1cc(C(F)(F)F)ccn1)nn2[C@H]1C[C@H](O)C1 [Compound 113, (trans)-3-(4-amino-3-((4-(trifluoromethyl)pyridin-2-yl)oxy)-1H-pyrazolo[3,4-d]pyrimidin-1-yl)cyclobutan-1-ol]
[1]
  IC50: 0.0265 µM

## Nc1ncnc2c1c(Oc1cc(Cl)ccn1)nn2[C@H]1C[C@H](O)C1 [Compound 116]
[1]
  IC50: 0.0154 µM

## Nc1ncnc2c1c(Oc1cccc(Cl)c1)nn2C1CCC1 [Compound 121, 3-(3-chlorophenoxy)-1-cyclobutyl-1H-pyrazolo[3,4-d]pyrimidin-4-amine]
[1]
  IC50: 0.00741 µM

## Nc1ncnc2c1c(Cc1cccc(Cl)c1)nn2[C@H]1C[C@H](O)C1 [Compound 124, (trans)-3-(4-amino-3-(3-chlorobenzyl)-1H-pyrazolo[3,4-d]pyrimidin-1-yl)cyclobutan-1-ol]
[1]
  IC50: 0.00887 µM

## Nc1ncnc2c1c(Cc1cccc(C(F)(F)F)c1)nn2[C@H]1C[C@H](O)C1 [Compound 125]
[1]
  IC50: 0.036 µM

## Nc1ncnc2c1c(Cc1cccc(Br)c1)nn2[C@H]1C[C@H](O)C1 [Compound 127]
[1]
  IC50: 0.0184 µM

## Nc1ncnc2c1c(Cc1cccc(F)c1)nn2[C@H]1C[C@H](O)C1 [Compound 128]
[1]
  IC50: 0.0283 µM

## Nc1ncnc2c1c(Cc1cccc(Cl)c1)nn2[C@H]1C[C@@H](O)C1 [Compound 130, (cis)-3-(4-amino-3-(3-chlorobenzyl)-1H-pyrazolo[3,4-d]pyrimidin-1-yl)cyclobutan-1-ol]
[1]
  IC50: 0.0151 µM

## Nc1ncnc2c1c(Cc1cccc(Br)c1)nn2[C@H]1C[C@@H](O)C1 [Compound 131]
[1]
  IC50: 0.0114 µM

## Nc1ncnc2c1c(Cc1cccc(F)c1)nn2[C@H]1C[C@@H](O)C1 [Compound 132]
[1]
  IC50: 0.0284 µM

## Nc1ncnc2c1c(Cc1cccc(Cl)c1)nn2[C@H]1C[C@@H](F)C1 [Compound 135, 3-(3-chlorobenzyl)-1-((cis)-3-fluorocyclobutyl)-1H-pyrazolo[3,4-d]pyrimidin-4-amine]
[1]
  IC50: 0.00705 µM

## Nc1ncnc2c1c(Oc1cccc(C(F)(F)F)c1)nn2[C@H]1C[C@@H](O)C1 [Compound 151]
[1]
  IC50: 0.0313 µM

## Nc1ncnc2c1c(Oc1cccc(Cl)c1)nn2[C@H]1C[C@@H](O)C1 [Compound 152]
[1]
  IC50: 0.0273 µM

## Nc1ncnc2c1c(Oc1cccc(Cl)c1)nn2[C@H]1C[C@H](F)C1 [Compound 156]
[1]
  IC50: 0.01 µM

## Nc1ncnc2c1c(Cc1c[nH]c3ccc(F)cc13)nn2[C@H]1C[C@H](F)C1 [Compound 157]
[1]
  IC50: 0.011 µM

## Nc1ncnc2c1c(Oc1cc(C(F)(F)F)ccn1)nn2C1CC1 [Compound 159]
[1]
  IC50: 0.013 µM

## Nc1ncnc2c1c(Cc1cccc(F)c1)nn2[C@H]1C[C@H](F)C1 [Compound 161]
[1]
  IC50: 0.0142 µM

## COc1ccnc(Oc2nn([C@H]3C[C@H](F)C3)c3ncnc(N)c23)c1 [Compound 162]
[1]
  IC50: 0.0174 µM

## Nc1ncnc2c1c(Oc1cc(Cl)ccn1)nn2[C@H]1C[C@@H](O)C1 [Compound 163]
[1]
  IC50: 0.018 µM

## Nc1ncnc2c1c(Cc1cccc(F)c1)cn2[C@H]1C[C@H](O)C1 [Compound 164]
[1]
  IC50: 0.0283 µM

## Nc1ncnc2c1c(Oc1cc(C3CC3)ccn1)nn2C1CC1 [Compound 165]
[1]
  IC50: 0.0289 µM

## Nc1ncnc2c1c(Oc1cccc(C(F)(F)F)c1)nn2[C@H]1C[C@H](F)C1 [Compound 166]
[1]
  IC50: 0.0289 µM

## COc1ccnc(Oc2nn([C@H]3C[C@@H](O)C3)c3ncnc(N)c23)c1 [Compound 168]
[1]
  IC50: 0.0371 µM

## Nc1ncnc2c1c(Oc1cc(OC(F)(F)F)ccn1)nn2C1CC1 [Compound 169]
[1]
  IC50: 0.0377 µM

## Nc1ncnc2c1c(Oc1cc(C(F)(F)F)ccn1)nn2[C@H]1C[C@@H](O)C1 [Compound 170]
[1]
  IC50: 0.0386 µM

## Nc1ncnc2c1c(Oc1cccc(Cl)c1)nn2[C@H]1C[C@H](F)C1 [Compound 171]
tgCDPK1 IC50, inhibition of T. gondii CDPK1
  IC50: 0.0411 µM

## N#Cc1cccc(Cc2nn([C@H]3C[C@H](F)C3)c3ncnc(N)c23)c1 [Compound 172]
[1]
  IC50: 0.0459 µM

## N#Cc1cccc(Oc2nn([C@H]3C[C@H](F)C3)c3ncnc(N)c23)c1 [Compound 173]
[1]
  IC50: 0.0498 µM

## NC(=O)c1ccnc(Oc2nn([C@H]3C[C@H](F)C3)c3ncnc(N)c23)c1 [Compound 174]
[1]
  IC50: 0.0697 µM

## COc1ccnc(Oc2nn([C@H]3C[C@H](F)C3)c3ncnc(N)c23)c1 [Compound 175]
[1]
  IC50: 0.0174 µM

## N#Cc1cccc(Oc2nn([C@H]3C[C@H](O)C3)c3ncnc(N)c23)c1 [Compound 178]
[1]
  IC50: 0.0796 µM

## Nc1ncnc2c1c(Oc1cccc(C(F)(F)F)c1)nn2[C@H]1C[C@H](O)C1 [Compound 179]
[1]
  IC50: 0.0479 µM

## Nc1ncnc2c1c(Cc1c[nH]c3ccc(F)cc13)nn2[C@H]1C[C@H](O)C1 [Compound 184]
[1]
  IC50: 0.0102 µM

## Nc1ncnc2c1c(Oc1cc(C(F)(F)F)ccn1)nn2C1CCC(F)(F)CC1 [Compound 185]
[1]
  IC50: 0.0384 µM

## Nc1ncnc2c1c(Oc1cc(C(F)(F)F)ccn1)nn2CC1CC1 [Compound 186]
[1]
  IC50: 0.0224 µM

## Nc1ncnc2c1c(Oc1cc(O)ccn1)nn2C1CCC(F)(F)CC1 [Compound 187, 2-((4-amino-1-(4,4-difluorocyclohexyl)-1H-pyrazolo[3,4-d]pyrimidin-3-yl)oxy)pyridin-4-ol]
[1]
  IC50: 0.01 µM

## Nc1ncnc2c1c(Oc1cc(Cl)ccn1)nn2C1CCNCC1 [Compound 188]
[1]
  IC50: 0.0297 µM

## Nc1ncnc2c1c(Oc1cc(Cl)ccn1)nn2C1CCCNC1 (stereo not shown) [Compound 189]
[1]
  IC50: ~0.024 µM

## Nc1ncnc2c1c(Oc1cc(C(F)(F)F)ccn1)nn2C1CNCC(F)(F)C1 (stereo not shown) [Compound 190]
[1]
  IC50: ~0.054 µM

## Nc1ncnc2c1c(Oc1cc(C(F)(F)F)ccn1)nn2C1CCCC1 [Compound 192]
[1]
  IC50: 0.0192 µM

## Nc1ncnc2c1c(Oc1cc(C(F)(F)F)ccn1)nn2C1CCOC1 (stereo not shown) [Compound 193]
[1]
  IC50: 0.0477 µM

## Nc1ncnc2c1c(Oc1cc(C(F)(F)F)ccn1)nn2C1CCNCC1 [Compound 194]
[1]
  IC50: 0.0678 µM

## Nc1ncnc2c1c(Oc1cc(C(F)(F)F)ccn1)nn2C1CCCNC1 (stereo not shown) [Compound 195]
[1]
  IC50: 0.0568 µM

## CC(C)(C)OC(=O)N1CCC(Cn2nc(Oc3cc(C(F)(F)F)ccn3)c3c(N)ncnc32)C(F)(F)C1 (stereo not shown) [Compound 196]
[1]
  IC50: 0.0648 µM

## Nc1ncnc2c1c(Oc1cc(C(F)(F)F)ccn1)nn2CC1CCNCC1(F)F (stereo not shown) [Compound 197]
[1]
  IC50: 0.0138 µM

## Nc1ncnc2c1c(Oc1cc(C(F)(F)F)ccn1)nn2C1CCOCC1 [Compound 198]
[1]
  IC50: 0.0294 µM

## CC(C)(C)OC(=O)N1CCC(n2nc(Oc3cc(C(F)(F)F)ccn3)c3c(N)ncnc32)C1 (stereo not shown) [Compound 199]
[1]
  IC50: 0.0389 µM

## Nc1ncnc2c1c(Oc1cc(C(F)(F)F)ccn1)nn2C1CCCCC1 [Compound 200]
[1]
  IC50: 0.0147 µM

## Nc1ncnc2c1c(Oc1cc(Cl)ccn1)nn2C1CCCC1 [Compound 201]
[1]
  IC50: 0.0167 µM

## Nc1ncnc2c1c(Oc1cc(Cl)ccn1)nn2C1CCOC1 (stereo not shown) [Compound 202]
[1]
  IC50: 0.0557 µM

## N#Cc1ccnc(Oc2nn(C3CCC(F)(F)CC3)c3ncnc(N)c23)c1 [Compound 203]
[1]
  IC50: 0.0848 µM

## NC(=O)c1ccnc(Oc2nn(C3CCCC3)c3ncnc(N)c23)c1 [Compound 204]
[1]
  IC50: 0.067 µM

## NC(=O)c1ccnc(Oc2nn(C3CCCCC3)c3ncnc(N)c23)c1 [Compound 205]
[1]
  IC50: 0.0268 µM

## NC(=O)c1ccnc(Oc2nn(C3CCC(F)(F)CC3)c3ncnc(N)c23)c1 [Compound 206]
[1]
  IC50: 0.0968 µM

## N#Cc1ccnc(Oc2nn([C@H]3CC[C@@H](C(F)(F)F)CC3)c3ncnc(N)c23)c1 [Compound 207]
[1]
  IC50: 0.0237 µM

## NC(=O)c1ccnc(Oc2nn([C@H]3CC[C@@H](C(F)(F)F)CC3)c3ncnc(N)c23)c1 [Compound 208]
[1]
  IC50: 0.0901 µM

## N#Cc1ccnc(Oc2nn([C@H]3CC[C@H](C(F)(F)F)CC3)c3ncnc(N)c23)c1 [Compound 209]
[1]
  IC50: 0.026 µM
